# Results from PubChem BioAssay (NCI).
#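 The compound was tested at five concentrations on cells cultured in 96-well plates, with a 48-hour exposure period. Here, GI50 denotes the concentration required for 50% inhibition of growth. Definition used: TGI = concentration required for complete inhibition of growth.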
# Experiments:
# Experiment in all cases: NCI tumour cell line growth inhibition, 48 h
# SNB-75 CNS = test system: SNB-75 CNS
# SNB-19 CNS = test system: SNB-19 CNS
# SF-268 CNS = test system: SF-268 CNS
# CAKI-1 renal = test system: CAKI-1 renal
# CCRF-CEM leukemia = test system: CCRF-CEM leukemia
# HCC-2998 colon = test system: HCC-2998 colon
# BT-549 breast = test system: BT-549 breast
# COLO 205 colon = test system: COLO 205 colon
# SF-295 CNS = test system: SF-295 CNS
# IGROV1 ovarian = test system: IGROV1 ovarian
# HT29 colon = test system: HT29 colon
# EKVX NSCLC = test system: EKVX NSCLC
# OVCAR-3 ovarian = test system: OVCAR-3 ovarian
# HCT-15 colon = test system: HCT-15 colon
# HOP-92 NSCLC = test system: HOP-92 NSCLC
# M14 melanoma = test system: M14 melanoma
# T-47D breast = test system: T-47D breast
# DU-145 prostate = test system: DU-145 prostate
# HCT-116 colon = test system: HCT-116 colon
# K-562 leukemia = test system: K-562 leukemia
# UACC-62 melanoma = test system: UACC-62 melanoma
# SK-OV-3 ovarian = test system: SK-OV-3 ovarian
# MALME-3M melanoma = test system: MALME-3M melanoma
# ACHN renal = test system: ACHN renal
# KM12 colon = test system: KM12 colon
# NCI-H522 lung = test system: NCI-H522 lung
# OVCAR-5 ovarian = test system: OVCAR-5 ovarian
# NCI-H460 lung = test system: NCI-H460 lung
# U251 CNS = test system: U251 CNS
# NCI-H226 lung = test system: NCI-H226 lung
# RPMI-8226 leukemia = test system: RPMI-8226 leukemia
# RXF 393 renal = test system: RXF 393 renal
# LOX IMVI melanoma = test system: LOX IMVI melanoma
# HL-60(TB) leukemia = test system: HL-60(TB) leukemia
# UACC-257 melanoma = test system: UACC-257 melanoma
# 786-0 renal = test system: 786-0 renal
# MCF7 breast = test system: MCF7 breast
# PC-3 prostate = test system: PC-3 prostate
# SK-MEL-2 melanoma = test system: SK-MEL-2 melanoma
# SW-620 colon = test system: SW-620 colon
# MDA-MB-435 = test system: MDA-MB-435
# NCI/ADR-RES ovarian = test system: NCI/ADR-RES ovarian
# SN12C renal = test system: SN12C renal
# A498 renal = test system: A498 renal
# HOP-62 NSCLC = test system: HOP-62 NSCLC
# A549 NSCLC = test system: A549 NSCLC
# SK-MEL-28 melanoma = test system: SK-MEL-28 melanoma
# SF-539 CNS = test system: SF-539 CNS
# MOLT-4 leukemia = test system: MOLT-4 leukemia
# HS 578T breast = test system: HS 578T breast
# UO-31 renal = test system: UO-31 renal
# OVCAR-4 ovarian = test system: OVCAR-4 ovarian
# TK-10 renal = test system: TK-10 renal
# NCI-H23 lung = test system: NCI-H23 lung
# MDA-MB-231 breast = test system: MDA-MB-231 breast
# OVCAR-8 ovarian = test system: OVCAR-8 ovarian
# SK-MEL-5 melanoma = test system: SK-MEL-5 melanoma
smiles,measurement,setting,value
COc1cc2c3c(n(C)c(=O)c2cc1OC)-c1cc2c(cc1/C3=C\[C@@H](N)CCCCN)OCO2,GI50,SNB-75 CNS,0.985 µM
same,TGI,SNB-75 CNS,> 41.3 µM
same,GI50,SNB-19 CNS,1.46 µM
same,TGI,SNB-19 CNS,> 100 µM
same,GI50,SF-268 CNS,1.86 µM
same,TGI,SF-268 CNS,> 42 µM
same,GI50,CAKI-1 renal,4.26 µM
same,TGI,CAKI-1 renal,> 75.1 µM
same,GI50,CCRF-CEM leukemia,0.996 µM
same,TGI,CCRF-CEM leukemia,> 100 µM
same,GI50,HCC-2998 colon,2.99 µM
same,TGI,HCC-2998 colon,45.9 µM
same,GI50,BT-549 breast,4.52 µM
same,TGI,BT-549 breast,28.3 µM
same,GI50,COLO 205 colon,2.8 µM
same,TGI,COLO 205 colon,> 86.3 µM
same,GI50,SF-295 CNS,4.3 µM
same,TGI,SF-295 CNS,> 100 µM
same,GI50,IGROV1 ovarian,2.24 µM
same,TGI,IGROV1 ovarian,> 100 µM
same,GI50,HT29 colon,0.337 µM
same,TGI,HT29 colon,> 100 µM
same,GI50,EKVX NSCLC,4.56 µM
same,TGI,EKVX NSCLC,75.9 µM
same,GI50,OVCAR-3 ovarian,3.83 µM
same,TGI,OVCAR-3 ovarian,58.9 µM
same,GI50,HCT-15 colon,60.3 µM
same,TGI,HCT-15 colon,> 100 µM
same,GI50,HOP-92 NSCLC,1.7 µM
same,TGI,HOP-92 NSCLC,29.4 µM
same,GI50,M14 melanoma,6.9 µM
same,TGI,M14 melanoma,> 100 µM
same,GI50,T-47D breast,13 µM
same,TGI,T-47D breast,> 100 µM
same,GI50,DU-145 prostate,0.717 µM
same,TGI,DU-145 prostate,37 µM
same,GI50,HCT-116 colon,0.329 µM
same,TGI,HCT-116 colon,14.4 µM
same,GI50,K-562 leukemia,2.43 µM
same,TGI,K-562 leukemia,> 72.2 µM
same,GI50,UACC-62 melanoma,0.467 µM
same,TGI,UACC-62 melanoma,7.38 µM
same,GI50,SK-OV-3 ovarian,> 26.2 µM
same,TGI,SK-OV-3 ovarian,> 100 µM
same,GI50,MALME-3M melanoma,1.84 µM
same,TGI,MALME-3M melanoma,13.3 µM
same,GI50,ACHN renal,2.46 µM
same,TGI,ACHN renal,> 41.4 µM
same,GI50,KM12 colon,1.58 µM
same,TGI,KM12 colon,> 100 µM
same,GI50,NCI-H522 lung,1.37 µM
same,TGI,NCI-H522 lung,> 23.2 µM
same,GI50,OVCAR-5 ovarian,5.14 µM
same,TGI,OVCAR-5 ovarian,> 100 µM
same,GI50,NCI-H460 lung,0.707 µM
same,TGI,NCI-H460 lung,> 82.9 µM
same,GI50,U251 CNS,< 0.0209 µM
same,TGI,U251 CNS,7.41 µM
same,GI50,NCI-H226 lung,1.48 µM
same,TGI,NCI-H226 lung,18.4 µM
same,GI50,RPMI-8226 leukemia,2.57 µM
same,TGI,RPMI-8226 leukemia,35.2 µM
same,GI50,RXF 393 renal,12.7 µM
same,TGI,RXF 393 renal,> 50.9 µM
same,GI50,LOX IMVI melanoma,0.298 µM
same,TGI,LOX IMVI melanoma,3.9 µM
same,GI50,HL-60(TB) leukemia,2.15 µM
same,TGI,HL-60(TB) leukemia,8.73 µM
same,GI50,UACC-257 melanoma,5.24 µM
same,TGI,UACC-257 melanoma,> 52.8 µM
same,GI50,786-0 renal,2.06 µM
same,TGI,786-0 renal,> 100 µM
same,GI50,MCF7 breast,0.657 µM
same,TGI,MCF7 breast,> 49.3 µM
same,GI50,PC-3 prostate,2.71 µM
same,TGI,PC-3 prostate,> 53.1 µM
same,GI50,SK-MEL-2 melanoma,13.2 µM
same,TGI,SK-MEL-2 melanoma,> 100 µM
same,GI50,SW-620 colon,1.57 µM
same,TGI,SW-620 colon,> 100 µM
same,GI50,MDA-MB-435,2.81 µM
same,TGI,MDA-MB-435,> 100 µM
same,GI50,NCI/ADR-RES ovarian,29.7 µM
same,TGI,NCI/ADR-RES ovarian,> 100 µM
same,GI50,SN12C renal,0.46 µM
same,TGI,SN12C renal,6.95 µM
same,GI50,A498 renal,5.14 µM
same,TGI,A498 renal,33.9 µM
same,GI50,HOP-62 NSCLC,3.14 µM
same,TGI,HOP-62 NSCLC,26.9 µM
same,GI50,A549 NSCLC,0.381 µM
same,GI50,SK-MEL-28 melanoma,1.39 µM
same,TGI,SK-MEL-28 melanoma,> 100 µM
same,GI50,SF-539 CNS,0.335 µM
same,TGI,SF-539 CNS,12.5 µM
same,GI50,MOLT-4 leukemia,0.389 µM
same,TGI,MOLT-4 leukemia,3.45 µM
same,GI50,HS 578T breast,15.9 µM
same,TGI,HS 578T breast,81.8 µM
same,GI50,UO-31 renal,8 µM
same,TGI,UO-31 renal,> 100 µM
same,GI50,OVCAR-4 ovarian,1.26 µM
same,TGI,OVCAR-4 ovarian,99 µM
same,GI50,TK-10 renal,7.12 µM
same,TGI,TK-10 renal,> 75 µM
same,GI50,NCI-H23 lung,1.29 µM
same,TGI,NCI-H23 lung,20.5 µM
same,GI50,MDA-MB-231 breast,1.54 µM
same,TGI,MDA-MB-231 breast,> 48.5 µM
same,GI50,OVCAR-8 ovarian,2.66 µM
same,TGI,OVCAR-8 ovarian,> 45.8 µM
CCCCC#Cc1cccc(=O)o1,GI50,SNB-19 CNS,> 100 µM
same,TGI,SNB-19 CNS,> 100 µM
same,GI50,SF-268 CNS,> 100 µM
same,TGI,SF-268 CNS,> 100 µM
same,GI50,CAKI-1 renal,> 100 µM
same,TGI,CAKI-1 renal,> 100 µM
same,GI50,CCRF-CEM leukemia,20.3 µM
same,TGI,CCRF-CEM leukemia,> 100 µM
same,GI50,BT-549 breast,> 100 µM
same,TGI,BT-549 breast,> 100 µM
same,GI50,COLO 205 colon,2.23 µM
same,TGI,COLO 205 colon,5.3 µM
same,GI50,SF-295 CNS,> 100 µM
same,TGI,SF-295 CNS,> 100 µM
same,GI50,IGROV1 ovarian,79.5 µM
same,TGI,IGROV1 ovarian,> 100 µM
same,GI50,HT29 colon,7.03 µM
same,TGI,HT29 colon,> 100 µM
same,GI50,EKVX NSCLC,12.4 µM
same,TGI,EKVX NSCLC,> 100 µM
same,GI50,OVCAR-3 ovarian,5.23 µM
same,TGI,OVCAR-3 ovarian,> 100 µM
same,GI50,HOP-92 NSCLC,15.3 µM
same,TGI,HOP-92 NSCLC,> 100 µM
same,GI50,M14 melanoma,4.5 µM
same,TGI,M14 melanoma,> 100 µM
same,GI50,T-47D breast,29.2 µM
same,TGI,T-47D breast,> 100 µM
same,GI50,DU-145 prostate,29.5 µM
same,TGI,DU-145 prostate,> 100 µM
same,GI50,HCT-116 colon,5.34 µM
same,TGI,HCT-116 colon,30.4 µM
same,GI50,UACC-62 melanoma,30 µM
same,TGI,UACC-62 melanoma,> 100 µM
same,GI50,SK-OV-3 ovarian,> 100 µM
same,TGI,SK-OV-3 ovarian,> 100 µM
same,GI50,MALME-3M melanoma,57.4 µM
same,TGI,MALME-3M melanoma,> 100 µM
same,GI50,KM12 colon,37.1 µM
same,TGI,KM12 colon,> 100 µM
same,GI50,NCI-H522 lung,7.16 µM
same,TGI,NCI-H522 lung,> 100 µM
same,GI50,OVCAR-5 ovarian,> 100 µM
same,TGI,OVCAR-5 ovarian,> 100 µM
same,GI50,NCI-H460 lung,36.2 µM
same,TGI,NCI-H460 lung,> 100 µM
same,GI50,NCI-H226 lung,> 100 µM
same,TGI,NCI-H226 lung,> 100 µM
same,GI50,RPMI-8226 leukemia,2.03 µM
same,TGI,RPMI-8226 leukemia,49.9 µM
same,GI50,RXF 393 renal,44.3 µM
same,TGI,RXF 393 renal,> 100 µM
same,GI50,HL-60(TB) leukemia,1.86 µM
same,TGI,HL-60(TB) leukemia,> 100 µM
same,GI50,UACC-257 melanoma,30.9 µM
same,TGI,UACC-257 melanoma,> 100 µM
same,GI50,786-0 renal,> 100 µM
same,TGI,786-0 renal,> 100 µM
same,GI50,MCF7 breast,8.9 µM
same,TGI,MCF7 breast,> 100 µM
same,GI50,PC-3 prostate,25.7 µM
same,TGI,PC-3 prostate,> 100 µM
same,GI50,SK-MEL-2 melanoma,20.8 µM
same,TGI,SK-MEL-2 melanoma,> 100 µM
same,GI50,SW-620 colon,22.5 µM
same,TGI,SW-620 colon,> 100 µM
same,GI50,MDA-MB-435,15 µM
same,TGI,MDA-MB-435,> 100 µM
same,GI50,SK-MEL-5 melanoma,3.71 µM
same,TGI,SK-MEL-5 melanoma,26.6 µM
same,GI50,NCI/ADR-RES ovarian,9.46 µM
same,TGI,NCI/ADR-RES ovarian,> 100 µM
same,GI50,A498 renal,9.83 µM
same,TGI,A498 renal,66.1 µM
same,GI50,HOP-62 NSCLC,> 100 µM
same,TGI,HOP-62 NSCLC,> 100 µM
same,GI50,A549 NSCLC,45.6 µM
same,TGI,A549 NSCLC,> 100 µM
same,GI50,SK-MEL-28 melanoma,18.3 µM
same,TGI,SK-MEL-28 melanoma,> 100 µM
same,GI50,SF-539 CNS,> 100 µM
same,TGI,SF-539 CNS,> 100 µM
same,GI50,MOLT-4 leukemia,3.62 µM
same,TGI,MOLT-4 leukemia,> 100 µM
same,GI50,HS 578T breast,> 100 µM
same,TGI,HS 578T breast,> 100 µM
same,GI50,UO-31 renal,20.8 µM
same,TGI,UO-31 renal,> 100 µM
same,GI50,OVCAR-4 ovarian,> 100 µM
same,TGI,OVCAR-4 ovarian,> 100 µM
same,GI50,TK-10 renal,> 100 µM
same,TGI,TK-10 renal,> 100 µM
same,GI50,NCI-H23 lung,8.98 µM
same,TGI,NCI-H23 lung,> 100 µM
same,GI50,MDA-MB-231 breast,6.43 µM
same,TGI,MDA-MB-231 breast,> 100 µM
same,GI50,OVCAR-8 ovarian,> 100 µM
same,TGI,OVCAR-8 ovarian,> 100 µM
